Source: patent publication US20170304329A1 (THE UNIVERSITY OF KANSAS, priority 2014, published 2017)
“And” between values parts separate entries of the source, which are not always exact repeats. Equal values may be shown once. Where a name gives a salt, the structure may show the parent alone. Read-outs that look alike come from different tables or passages of the source. Values belong to the molecule of their own block, whether it stands above or below them.

Experiments:
[1] = tested on: T24 cells; assay: Cell proliferation, hexosaminidase assay; assay type: cell-based, human
Procedure: (§1) To determine the effect of CPX on bladder cancer cell proliferation in T24 (MIBC) and 253-JBV (NMIBC) cells, 5,000 cells per well were seeded on to 96-well plates and grown overnight. The cells were then treated with increasing doses of CPX in RPMI media containing 10% FBS. Analysis of cell proliferation after the treatment period was estimated by the hexosaminidase assay. Briefly, the medium was removed and hexosaminidase substrate solution in citrate buffer pH 5 (7.5 mM), p-nitrophenol-N-acetyl-beta-D-glucosaminidase (Sigma Aldrich) was added at 75 μL per well. The plate was incubated at 37° C. in 100% humidity for 30 minutes. The reaction was stopped with 112.5 μL of 50 mM glycine containing 5 mM of EDTA (pH 10.4). The absorbance was measured at 405 nm. Experiments were conducted at n=6, and then repeated at least three times. The data were analyzed as percent of control, where the control wells were treated with equivalent amounts of DMSO alone. For IC50 calculations, a plot between the drug concentration and hexosaminidase activity was generated and the data was fitted either linearly or exponentially. The best fit was used for further processing of data.
(§2) We determined and compared the effect of CPX with CPX-POM and CPX-glucuronide in vitro by performing proliferation assay. To determine the effect of CPX, CPX-POM and CPX-glucuronide on bladder cancer cell proliferation in T24 (MIBC) and 253-JBV (NMIBC) cells, 5,000 cells per well were seeded on to 96-well plates and grown overnight. The cells were then treated with increasing doses of CPX, CPX-POM and CPX-glucuronide in RPMI media containing 10% FBS. Analysis of cell proliferation after the treatment period was estimated by the hexosaminidase assay. Briefly, the medium was removed and hexosaminidase substrate solution in citrate buffer pH 5 (7.5 mM), p-nitrophenol-N-acetyl-beta-D-glucosaminidase (Sigma Aldrich) was added at 75 μL per well. The plate was incubated at 37° C. in 100% humidity for 30 minutes. The reaction was stopped with 112.5 μL of 50 mM glycine containing 5 mM of EDTA (pH 10.4). The absorbance was measured at 405 nm.
(§3) Experiments were conducted at n=6, and then repeated at least three times. The data were analyzed as percent of control, where the control wells were treated with equivalent amounts of DMSO alone. For IC50 so calculations, a plot between the drug concentration and hexosaminidase activity was generated and the data was fitted either linearly or exponentially.

[2] = tested on: 253JBV cells; assay: Cell proliferation, hexosaminidase assay; assay type: cell-based, human
Procedure: as §1, §2, §3

[3] = tested on: β-glucuronidase
Procedure: Based on human excretion data [Kellner et al, Arzneimittel-Forschung. 31 (8A):1337-1353], as well as evidence that bladder cancer patients have increased glucuronidase activity in urine [Paigen, K., Peterson, J., Paigen B. (1984) Role of urinary β-glucuronidase activity in human bladder cancer. Cancer Res 44:3620-3623], we conducted in vitro metabolism studies to characterize the stability of ciclopirox glucuronide in urine (at a concentration of 150 μM) obtained from bladder cancer patients compared to control urine collected from healthy volunteers.

[4] = tested on: BBN induced bladder tumors; assay: BBN induced bladder tumor model; assay type: in vivo, mouse
Text: There were no significant differences in bladder weights between the two CPX-POM treatment groups. […] There is a strong correlation between CPX-POM treatment and tumor stage. […] Hematoxylin and Eosin stained bladder tissue sections of BBN alone group animals show a very high frequency of T3 stage tumors.

[5] = tested on: proliferating cell nuclear antigen (PCNA) in T24 cells; assay: Western blot of PCNA; assay type: cell-based, human
Text: CPX-POM inhibits proliferating cell nuclear antigen (PCNA) both in vitro and in vivo. […] Also, studies show a positive correlation between notch intracellular pathway and PCNA.

[6] = Study 11428: plasma CPX pharmacokinetics after IV CPX-POM, SQ CPX-POM and oral CPX-O; assay type: in vivo, male Sprague-Dawley rats; settings: rats; for AUC: plasma, po
Text: (§6) Intravenous CPX-POM was used as the reference in characterizing the bioavailability of ciclopirox following SQ ciclopirox-POM prodrug in this specie.

[7] = Aqueous solubility; assay type: physicochemical
[8] = mice
Procedure: The plasma and urine pharmacokinetics of ciclopirox (CPX) were characterized in the mouse following 10 mg/kg IV and 50 mg/kg IP administration of ciclopirox-POM prodrug (CPX-POM). […] In addition, we characterized the urinary excretion of CPX and ciclopirox glucuronide (CPX-G) to describe urinary tract exposure to CPX following IP administration of CPX-POM. Two treatment groups of 30 C57BL/6 mice each were treated with CPX-POM. Prior to and over six hours post-dose, three animals were sacrificed at each selected plasma sampling time point. Blood (plasma) was collected by cardiac puncture for bioanalysis. Plasma was pooled at each time point. In addition, two groups of six mice each were administered 10 mg/kg IV and 50 mg/kg IP CPX-POM to characterize urine pharmacokinetics. Mice were placed in metabolism cages with urine collected over 24 hours post-dose (0-8 hour and 8-24 hour urine collection intervals). As with plasma, urine samples collected from six animals were pooled for bioanalysis.

[9] = Series of pharmacokinetic studies (summary); settings: following IV administration in mice, rats, and dogs
[10] = rats
[11] = Study 208-02: plasma CPX pharmacokinetics after IV and oral CPX-O and CPX-POM; assay type: in vivo, male C57/Bl6 mice; settings: mice
Text: Study 208-02. Bioavailability of Ciclopirox Following Oral and Intravenous Administration of Ciclopirox-POM Prodrug in the Mouse. […] The objectives of this study were to characterize the rate and extent of CPX-POM metabolism and assess the feasibility of orally administered ciclopirox-POM prodrug in support of future cancer proof of principle studies.

[12] = Study 11206: urine CPX and CPX-G pharmacokinetics after single and repeated IP CPX-POM; assay type: in vivo, male C57/Bl6 mice; settings: mice; IP 50, 100, and 200 mg/kg
Procedure: Urine ciclopirox (CPX) pharmacokinetics were characterized in mice following single (Day 1) and repeat (Day 10) dose (once daily for ten consecutive days) administration of 50, 100, and 200 mg/kg ciclopirox-POM prodrug (CPX-POM) to three separate groups of six mice each, are summarized in Table 3B below. […] Following single and repeat dose IP administration of 50, 100, and 200 mg/kg CPX-POM, less than 1% of the dose was excreted as CPX over 24 hours. Despite the low percent dose recovery as ciclopirox, however, urine CPX concentrations exceeded the in vitro IC50 value of 2 μM by several-fold across the entire dose range.

[13] = dogs
[14] = Study 10954: urine CPX and CPX-G pharmacokinetics after IV CPX-POM and CPX-O; assay type: in vivo, male Sprague-Dawley rats; settings: rats; 10 mg/kg IV
Text: (§4) Study 10954. Bioavailability of Ciclopirox Following Intravenous Administration of Ciclopirox-POM Prodrug in the Rat. […] Given the low oral bioavailability of CPX observed in the mouse following administration of CPX-O and CPX-POM, this route of administration was not investigated in this study.

[15] = Study 10953: urine CPX pharmacokinetics after IV CPX-POM and CPX-O; assay type: in vivo, male beagle dogs; settings: dogs; 3 mg/kg IV
Text: (§5) Study 10953. Bioavailability of Ciclopirox Following Intravenous Administration of Ciclopirox-POM Prodrug in the Dog. […] Given the low oral bioavailability of CPX observed in the mouse following administration of CPX-O and CPX-POM, this route of administration was not investigated in this study.

[16] = Study 10954: plasma CPX pharmacokinetics after IV CPX-POM and CPX-O; assay type: in vivo, male Sprague-Dawley rats; settings: rats
Text: as §4

[17] = Study 11429: plasma CPX pharmacokinetics after IV CPX-POM, SQ CPX-POM and oral CPX-O; assay type: in vivo, male beagle dogs; settings: dogs; for AUC: plasma, po, 9 mg/kg
Text: as §6

[18] = Study 10953: plasma CPX pharmacokinetics after IV CPX-POM and CPX-O; assay type: in vivo, male beagle dogs; settings: dogs
Procedure: as §5
FIG. 14 illustrates the mean plasma CPX concentration-time profiles following administration of 3 mg/kg IV CPX-POM and CPX-O to four male beagle dogs.

[19] = cited from earlier work
[20] = humans; oral; cited from earlier work
[21] = 150 μM CPX-G, six-hour incubation, pooled urine from six NMIBC patients
[22] = male, Sprague-Dawley, rat, plasma CPX, single 30 mg/kg oral
[23] = male, C57/Bl6, mouse, plasma CPX, single 10 mg/kg IV
[24] = male, beagle, dog, plasma CPX, single 9 mg/kg oral

Structure (SMILES): Cc1cc(C2CCCCC2)n(O[C@H]2OC(C(=O)O)[C@H](O)C(O)C2O)c(=O)c1 (stereo partly shown) [CPX-G, ciclopirox glucuronide]
effect on cell proliferation ([1]; up to 72 h): did not show any significant effect
effect on cell proliferation ([2]; up to 72 h): did not show any significant effect
ciclopirox formed by hydrolysis [3, 21]: 7.9 µM
formation rate [3, 21]: 5%
extent of ciclopirox formation, patient urine vs healthy volunteer urine ([3]; bladder cancer patient urine compared to healthy volunteers): approximately 11.6 fold
rate of β-glucuronidase-mediated hydrolysis, patient urine vs control urine ([3]; pooled bladder cancer patient urine vs control urine): 5.6-11.5 fold

Structure (SMILES): Cc1cc(C2CCCCC2)n(OCOP(=O)(O)O)c(=O)c1 [CPX-POM, phosphate disodium salt]
tumor stage ([4]; H&E stained bladder tissue sections, vs BBN alone): significant reduction in the stage T3 frequency
Notch downstream target proteins ([4]; bladder tissue): significantly reduced the Notch downstream target proteins such as Cyclin D1 and c-Myc
Notch1 signaling and γ-secretase complex proteins in vivo ([4]; bladder tissue, both treatment groups): significantly reduced Notch1 activation
PCNA level in vivo ([4]; bladder tumor tissues): reduced the level of PCNA in vivo
bladder weights (measure of tumor volume) ([4]; four weeks once daily IP 100 mg/kg and 200 mg/kg, vs controls): significantly lower (p=0.013)
PCNA level [5]: time dependent decrease in the level of PCNA
CPX-POM in blood or urine ([6]; 20 mg/kg IV and 30 mg/kg SQ): not detected in any blood or urine sample
aqueous solubility [7]: improve the aqueous solubility of ciclopirox
tolerability ([8]; 10 mg/kg IV and 50 mg/kg IP single doses): well tolerated
CPX Cmax relative to in vitro IC50 ([8]; 50 mg/kg IP, IC50 2 μM (414 ng/mL)): five-fold greater than the IC50
CPX-POM in plasma (BQL) ([8]; following either treatment (10 mg/kg IV, 50 mg/kg IP)): < 25 ng/mL
prodrug in plasma and urine [9]: not detected in plasma nor urine
tolerability ([10]; 20 mg/kg IV and 30 mg/kg SQ): well tolerated
prodrug in plasma ([11]; following oral and IV administration): not detected in plasma
CPX-POM in urine [12]: not detected in any urine samples
IC50 ([1]; Homo sapiens, T-24, 48 h, 48 h): ≥ 45 µM
IC50 ([2]; Homo sapiens, 48 h): 48 µM
tolerability ([13]; 3 mg/kg IV and 9 mg/kg SQ): well tolerated
CPX-POM in urine [14]: not detected in any urine samples collected
CPX-POM in urine [15]: not detected in any urine sample
CPX-POM in plasma ([16]; 10 mg/kg IV bolus): failed to detect CPX-POM in the majority of samples collected
Cmax relative to in vitro IC50 ([16]; 10 mg/kg IV, IC50 2 μM (414 ng/mL)): approximately twenty-fold greater than the IC50
CPX-POM in blood or urine ([17]; 3 mg/kg IV and 9 mg/kg SQ): not detected in any blood or urine sample
CPX-POM in plasma ([18]; 3 mg/kg IV bolus): not detected in the majority of plasma samples assayed
mean Cmax relative to in vitro IC50 ([18]; 3 mg/kg IV, IC50 2 μM (414 ng/mL)): approximately seven-fold greater than the IC50

AUC ([6]; male, Sprague-Dawley, rat, 30 mg/kg, plasma CPX, single 30 mg/kg oral, read-out: AUC0∫^n): 211 ± 84.5 ng·h/mL
AUC ([6]; male, Sprague-Dawley, rat, 30 mg/kg, plasma CPX, single 30 mg/kg oral, read-out: AUC0∫^∞): 378 ± 140 ng·h/mL
Cmax [6, 22]: 373 ± 158 ng/mL
Tmax [6, 22]: 15 ± 7.74 min
half-life [6, 22]: 48.1 ± 33.5 min
Kel ([6]; plasma CPX, single 30 mg/kg oral): 1.234 ± 0.742 h⁻¹
F ([6]; plasma CPX, single 30 mg/kg oral, reference IV CPX-POM, 30 mg/kg): 4.6% and 4.56%
FeCPX ([10]; urine, single 30 mg/kg oral): 0.25 ± 0.18%
Xe/dtCPX 0-8 hr ([10]; urine, single 30 mg/kg oral): 0.63 ± 0.16 µg/h
Xe/dtCPX 8-24 hr ([10]; urine, single 30 mg/kg oral): 1.08 ± 1.11 µg/h
XeCPX 0-24 hr ([10]; urine, single 30 mg/kg oral): 22.30 ± 16.65 µg
UCPX 0-24 hr ([10]; urine, single 30 mg/kg oral, 30 mg/kg): 1,711 ± 1,427 ng/mL and 8.28 ± 6.89 μM
C0 [11, 23]: 11300 ng/mL
MRT [11, 23]: 15.5 min
clearance [11, 23]: 108 mL/min/kg
Vd ([11]; male, C57/Bl6, mouse, plasma CPX, single 10 mg/kg IV, read-out: Vss): 1.68 L/kg
AUMC0∫^n ([11]; plasma CPX, single 10 mg/kg IV): 358 ng*hr^2/mL
AUMC0∫^∞ ([11]; plasma CPX, single 10 mg/kg IV): 401 ng*hr^2/mL
Vdz ([11]; plasma CPX, single 10 mg/kg IV): 5.7 L/kg
FeCPX ([13]; urine, single 9 mg/kg oral): 0.32 ± 0.21%
Xe/dtCPX 8-24 hr ([13]; urine, single 9 mg/kg oral): 2.90 ± 1.70 µg/h
XeCPX 0-24 hr ([13]; urine, single 9 mg/kg oral): 299 ± 208 µg
UCPX 0-24 hr ([13]; urine, single 9 mg/kg oral, 9 mg/kg): 1,602 ± 750^ ng/mL and 7.74 ± 3.62 μM
AUC ([17]; male, beagle, dog, plasma CPX, single 9 mg/kg oral, read-out: AUC0∫^n): 1900 ng·h/mL
AUC ([17]; male, beagle, dog, plasma CPX, single 9 mg/kg oral, read-out: AUC0∫^∞): 2700 ng·h/mL
Cmax [17, 24]: 1020 ng/mL
Tmax [17, 24]: 15 ± 7.74 min
half-life [17, 24]: 331 ± 23.4 min
Kel ([17]; plasma CPX, single 9 mg/kg oral): 0.126 ± 0.009 h⁻¹
Structure (SMILES): Cc1cc(C2CCCCC2)n(O)c(=O)c1 [CPX-O, ciclopirox olamine]
tolerability ([19]; 80 mg/m^2 oral, once daily): well tolerated
toxicity ([19]; oral, four times daily): dose-limiting gastrointestinal toxicity
dose excreted in urine within 6 hours [20]: 87%
dose excreted in urine within 12 hours [20]: approximately 95%
dose in urine identified as ciclopirox [20]: 4%
dose in urine identified as ciclopirox and ciclopirox glucuronide [20]: 83%
dose in urine identified as ciclopirox glucuronide [20]: 79%
